# Read-outs that look alike come from different tables or passages of the source.
# How the values were obtained:
# [1] = molecular target: T1, Gastrin receptor (gastric glands) (Cavia porcellus, UniProt H0VZC5); test: Gastrin Receptor Binding in Guinea Pig Gastric Glands; design: species or system guinea pig (male Hartley); conditions: 25° C., 30 minutes
# T1 construct: The washed guinea pig gastric glands prepared as above were resuspended; from tissue; host or cells: guinea pig gastric mucosal glands (male Hartley)
# T1 sequence (H0VZC5 1-426): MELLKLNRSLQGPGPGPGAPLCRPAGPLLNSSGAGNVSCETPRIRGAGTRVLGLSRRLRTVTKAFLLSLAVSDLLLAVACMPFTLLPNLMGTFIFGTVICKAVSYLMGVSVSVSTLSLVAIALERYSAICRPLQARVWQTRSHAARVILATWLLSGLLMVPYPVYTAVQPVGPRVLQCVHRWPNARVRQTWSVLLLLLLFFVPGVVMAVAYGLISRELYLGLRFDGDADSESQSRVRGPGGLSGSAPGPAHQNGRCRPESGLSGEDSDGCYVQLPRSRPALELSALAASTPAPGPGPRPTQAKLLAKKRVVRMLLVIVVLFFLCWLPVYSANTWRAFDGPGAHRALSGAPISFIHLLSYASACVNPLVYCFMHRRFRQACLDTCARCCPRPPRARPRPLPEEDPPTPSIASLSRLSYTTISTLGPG
# [2] = molecular target: T2, CCK receptor (brain, cerebral cortex) (Cavia porcellus, UniProt H0VZC5); test: biochemical; type: binding, Male Hartley guinea pigs; conditions: guinea pig cerebral cortex, ^125 I-CCK-33, 25° C., 2 hours
# T2 construct: Cerebral cortex was dissected and used as a receptor source; from tissue; host or cells: guinea pig cerebral cortex membranes (male Hartley)
# T2 sequence (H0VZC5 1-426): T1 sequence (H0VZC5 1-426)
# Summary of the method: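 Binding of [radiolabeled] CCK-33 measured by gamma counting of centrifuged pellets after 2 h at 25°C. Membranes came from guinea pig brain cortex, suspended in 10 mM HEPES, 5 mM MgCl2, 1 mM EGTA, 0.25 mg/ml bacitracin, 0.4% BSA.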
# CCK receptor (pancreas) = molecular target: T3, CCK receptor (pancreas) (Rattus norvegicus, UniProt P30551); test: CCK Receptor Binding (Pancreas): inhibition of ^125 I-CCK-33 binding; design: species or system Male Sprague-Dawley rats; conditions: rat pancreas membranes, ^125 I-CCK-33, 37° C., 30 minutes
# T3 construct: The whole pancreas was dissected free of fat tissue and was homogenized; from tissue; host or cells: rat pancreas membranes (Sprague-Dawley)
# T3 sequence (P30551 1-444): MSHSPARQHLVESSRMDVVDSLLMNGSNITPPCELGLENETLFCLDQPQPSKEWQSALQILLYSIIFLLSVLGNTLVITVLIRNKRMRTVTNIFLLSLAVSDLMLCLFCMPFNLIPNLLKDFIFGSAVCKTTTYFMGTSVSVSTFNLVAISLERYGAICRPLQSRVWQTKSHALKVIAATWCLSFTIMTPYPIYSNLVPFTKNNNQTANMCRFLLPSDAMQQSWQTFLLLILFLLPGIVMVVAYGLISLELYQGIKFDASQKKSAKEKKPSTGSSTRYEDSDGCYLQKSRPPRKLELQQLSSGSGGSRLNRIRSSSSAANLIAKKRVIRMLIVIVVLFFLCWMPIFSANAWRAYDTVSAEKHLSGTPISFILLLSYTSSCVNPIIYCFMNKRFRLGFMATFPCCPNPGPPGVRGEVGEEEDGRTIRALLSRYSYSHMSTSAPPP
# Summary of the method: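 Bound ^125I-CCK-33 was counted in pellets after a 30 min, 37° C incubation followed by centrifugation. Membranes came from male Sprague-Dawley rat pancreas, assayed in Tris HCl pH 7.7 containing DTT, bacitracin, PMSF and o-phenanthroline. For Scatchard analysis, tracer was diluted with rising unlabelled CCK-33.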
# [3] = IC50 ^125 I-Gastrin Gastric Glands
# [4] = read-out: IC50 ^125 I-CCK Pancreas
# [5] = ^125 I-gastrin, read-out: IC50 ^125 I-Gastrin Gastric Glands
# [6] = read-out: IC50 ^125 I-CCK Brain
SMILES,"IC50 [1, 3] [nM]",IC50 ([2]; IC50 ^125 I-CCK Brain) [nM],IC50 (CCK receptor (pancreas); [4]) [nM],IC50 (CCK receptor (pancreas); IC50 ^125 I-CCK Pancreas) [nM],"IC50 [1, 5] [nM]","IC50 [2, 6] [nM]"
"CN1C(=O)[C@H](NC(=O)Nc2cccc(Br)c2)N=C(c2ccccc2)c2ccccc21 [Example 282, (R)-N-(2,3-Dihydro-1-methyl-2-oxo-5-phenyl-1H-1,4-benzodiazepin-3-yl)-N'-(3-bromophenyl)-urea]",1.6,3.8,840,–,–,–
"COc1cccc(NC(=O)NC2N=C(c3ccccc3)c3ccccc3N(CC(=O)N3CCCC3)C2=O)c1 (stereo not drawn) [Example 284, 1-{[3-[(((3-Methoxyphenyl)amino)carbonyl)amino]-2,3-dihydro-2-oxo-5-phenyl-1H-1,4-benzodiazepin-1-yl]acetyl}pyrrolidine]",0.5,0.34,–,17,–,–
"CCN(CC)C(=O)CN1C(=O)C(NC(=O)Nc2cccc(OC)c2)N=C(c2ccccc2)c2ccccc21 (stereo not drawn) [Example 285, 3-{[((3-Methoxyphenyl)amino)carbonyl)amino]-N,N-diethyl-2,3-dihydro-2-oxo-5-phenyl-1H-1,4-benzodiazepin-1-acetamide]",–,–,–,> 100,0.26,0.22
"CCN(CC)C(=O)CN1C(=O)C(NC(=O)Nc2ccccc2Cl)N=C(c2ccccc2)c2ccccc21 (stereo not drawn) [Example 286, 3-{[((2-Chlorophenyl)amino)carbonyl]amino}-N,N-diethyl-2,3-dihydro-2-oxo-5-phenyl-1H-1,4-benzodiazepine-1-acetamide]",–,–,–,> 100,1.5,3.8
"Cc1cccc2c1NC(=O)C(NC(=O)c1cc3ccccc3[nH]1)N=C2c1ccccc1 (stereo not drawn) [Example 287, 3-N-(2,3-Dihydro-9-methyl-2-oxo-5-phenyl-1H-1,4-benzodiazeoin-3-yl)-1H-indole-2-carboxamide]",–,–,–,0.74,950,1000
"COc1cccc(NC(=O)NC2N=C(c3ccccc3)c3cccc(C)c3NC2=O)c1 (stereo not drawn) [Example 288, N-(3-Methoxyphenyl)-N'-(2,3-dihydro-9-methyl-2-oxo-5-phenyl-1H-1,4-benzodiazepin-3-yl)-urea]",–,–,–,75,54,42
"Cc1cccc2c1N(C)C(=O)C(NC(=O)c1cc3ccccc3[nH]1)N=C2c1ccccc1 (stereo not drawn) [Example 289, 3-N-(2,3-Dihydro-1,9-dimethyl-2-oxo-5-phenyl-1H-1,4-benzodiazepin-3-yl)-1H-indole-2-carboxamide]",–,–,–,0.1,660,89
"COc1cccc(NC(=O)NC2N=C(c3ccccc3)c3cccc(C)c3N(C)C2=O)c1 (stereo not drawn) [Example 290, N-(3-Methoxyphenyl)-N'-(2,3-dihydro-1,9-dimethyl-2-oxo-5-phenyl-1H-1,4-benzodiazepin-3-yl)-urea]",–,–,–,2,8.7,15
"Cc1ccc(C2=NC(NC(=O)c3cc4ccccc4[nH]3)C(=O)N(C)c3ccccc32)cc1 (stereo not drawn) [Example 291, 3-N-(2,3-Dihydro-1-methyl-2-oxo-5-(p-tolyl)-1H-1,4-benzodiazepin-3-yl)-1H-indole-2-carboxamide]",–,–,–,0.08,710,380
"COc1cccc(NC(=O)NC2N=C(c3ccc(C)cc3)c3ccccc3N(C)C2=O)c1 (stereo not drawn) [Example 292, N-(3-Methoxyphenyl)-N'-(2,3-dihydro-1-methyl-2-oxo-5-(p-tolyl)-1H-1,4-benzodiazepin-3-yl)-urea]",–,–,–,1,11.5,3.5
"Cc1ccc(NC(=O)N[C@@H]2N=C(c3ccccc3)c3ccccc3N(C)C2=O)cc1 [Example 293, (R)-N-(2,3-Dihydro-1-methyl-2-oxo-5-phenyl-1H-1,4-benzodiazepin-3-yl)-N'-(4-methylphenyl)-urea]",2.5,6.5,3100,–,–,–
"Cc1ccc2c(c1)N(C)C(=O)C(NC(=O)c1cc3ccccc3[nH]1)N=C2c1ccccc1 (stereo not drawn) [Example 294, 3-N-(2,3-Dihydro-1,8-dimethyl-2-oxo-5-phenyl-1H-1,4-benzodiazepin-3-yl)-1H-indole-2-carboxamide]",–,–,–,0.1,40,38
"COc1cccc(NC(=O)NC2N=C(c3ccccc3)c3ccc(C)cc3N(C)C2=O)c1 (stereo not drawn) [Example 295, N-(3-Methoxyphenyl)-N'-(2,3-dihydro-1,8-dimethyl-2-oxo-5-phenyl-1H-1,4-benzodiazepin-3-yl)-urea]",–,–,–,3,34,15
"CN1C(=O)[C@H](NC(=O)Nc2cccc(Cl)c2)N=C(c2ccccc2)c2ccccc21 [Example 296, (R)-N-(2,3-Dihydro-1-methyl-2-oxo-5-phenyl-1H-1,4-benzodiazepin-3-yl)-N'-(3-chloroohenyl)-urea]",2.2,7.5,290,–,–,–
"CN1C(=O)C(CC(=O)Nc2ccc(Cl)cc2)N=C(c2ccccc2)c2ccccc21 (stereo not drawn) [Example 297, N-(4-Chlorophenyl)-2,3-dihydro-1-methyl-2-oxo-5-phenyl-1H-1,4-benzodiazepine-3-acetamide]",–,–,–,1800,5200,3700
